Assay results as given in ChEMBL document CHEMBL2046386, “Potent and selective aminopyrimidine-based B-Raf inhibitors with favorable physicochemical and pharmacokinetic properties” (J Med Chem, 2012).
Values after ≈ are worked out from the molar mass of the structure shown.

Columns and labels:
[1] = target: T1, Serine/threonine-protein kinase B-raf (Homo sapiens, UniProt P15056, V600E); test: Inhibition of His6X-tagged human B-raf V600E mutant expressed in baculovirus infected insect cells coexpressing […] using [gamma33P]ATP after 60 mins by scintillation counting
T1 sequence (P15056 2-766 V600E limits assumed): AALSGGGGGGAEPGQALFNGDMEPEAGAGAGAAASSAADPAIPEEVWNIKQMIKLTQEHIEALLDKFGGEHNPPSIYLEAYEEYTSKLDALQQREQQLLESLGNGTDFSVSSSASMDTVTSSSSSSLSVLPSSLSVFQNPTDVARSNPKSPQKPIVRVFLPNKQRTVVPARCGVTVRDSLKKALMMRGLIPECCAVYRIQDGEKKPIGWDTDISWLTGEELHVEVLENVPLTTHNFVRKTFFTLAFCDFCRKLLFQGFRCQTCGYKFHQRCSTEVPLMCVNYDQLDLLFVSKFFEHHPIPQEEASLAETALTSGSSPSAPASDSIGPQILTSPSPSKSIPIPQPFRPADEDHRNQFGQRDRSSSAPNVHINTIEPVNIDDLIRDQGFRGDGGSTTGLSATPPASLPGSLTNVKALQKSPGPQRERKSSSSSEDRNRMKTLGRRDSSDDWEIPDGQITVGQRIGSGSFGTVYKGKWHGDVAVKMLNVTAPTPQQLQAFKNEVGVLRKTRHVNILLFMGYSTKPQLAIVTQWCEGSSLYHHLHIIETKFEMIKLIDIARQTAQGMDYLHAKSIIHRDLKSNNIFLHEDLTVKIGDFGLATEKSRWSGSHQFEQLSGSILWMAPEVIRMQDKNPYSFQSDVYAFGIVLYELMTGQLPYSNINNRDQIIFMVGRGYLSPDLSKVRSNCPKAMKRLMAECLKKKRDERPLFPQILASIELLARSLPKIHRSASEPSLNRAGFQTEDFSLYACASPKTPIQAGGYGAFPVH

[2] = target: T1, Serine/threonine-protein kinase B-raf; test: Inhibition of B-raf V600E mutant-mediated Erk phosphorylation in human MALM-3M cells by fluorometric analysis; type: cell-based
[3] = Lipophilicity, log P of the compound; type: physicochemical; conditions: octanol/water
[4] = Thermodynamic solubility of the compound at 0.5 mg/ml after 24 hrs by shake flask method at pH 6.5; type: physicochemical; conditions: buffer, read-out: Therm_solubility
[5] = AUC in mouse at 30 mg/kg, po dosed in 0.5% methylcellulose/0.2% Tween 80/99.3% water; type: ADME, organism-based; parameters: dose 30 mg/kg, route oral; conditions: in vivo
[6] = Dissociation constant, pKa of the compound at basic pH; type: physicochemical
[7] = system: Mus musculus; test: Toxicity in NCr nude mouse xenografted with human COLO205 cells expressing B-raf V600E mutant assessed as adverse effects; type: organism-based, COLO 205; conditions: in vivo
[8] = Oral bioavailability in mouse at 30 mg/kg; type: ADME, organism-based; conditions: in vivo
[9] = Plasma protein binding in mouse; type: ADME, cell-free; conditions: read-out: PPB (converted)
[10] = Volume of distribution at steady state in mouse at 2.5 mg/kg, iv; type: ADME, organism-based; parameters: dose 2.5 mg/kg, route intravenous; conditions: in vivo, read-out: Vdss
[11] = Clearance in mouse at 2.5 mg/kg, iv; type: ADME, organism-based; parameters: dose 2.5 mg/kg, route intravenous; conditions: in vivo
[12] = Thermodynamic solubility of the compound at 0.5 mg/ml after 24 hrs by shake flask method at pH 1.2; type: physicochemical; conditions: buffer, read-out: Therm_solubility

| SMILES | IC50 [1] | IC50 [2] | solubility thermodynamic at 24 h [12] | also measured |
| --- | --- | --- | --- | --- |
| Nc1ncnc2c(C(=O)Nc3c(Cl)ccc(NS(=O)(=O)CCCF)c3F)cccc12 | 0.11 nM | 2.5 nM | – | – |
| CCCS(=O)(=O)Nc1ccc(F)c(NC(=O)c2csc3c(N)ncnc23)c1F | 2.5 nM | 15 nM | > 1000 µg/mL | logP [3]: 2.7; solubility thermodynamic at 24 h [4]: 5 µg/mL (≈ 11.7 µM); AUC [5]: 874 µM·h; pKa [6]: 3.6; Activity [7]: Non-toxic; bioavailability [8]: 100%; fraction unbound [9]: 0.016; Vd [10]: 0.2 L/kg; clearance [11]: 1 mL/min/kg |
| CCCS(=O)(=O)Nc1ccc(F)c(NC(=O)Nc2cc(NC)ncn2)c1F | 36 nM | 168 nM | 900 µg/mL (≈ 2250 µM) | – |
| CCCS(=O)(=O)Nc1ccc(F)c(NC(=O)Nc2cc(NCCO)ncn2)c1F | – | 3400 nM | 900 µg/mL (≈ 2090 µM) | – |
| CCCS(=O)(=O)Nc1ccc(Cl)c(NC(=O)c2cccc3c(N)ncnc23)c1F | 0.59 nM | 9.5 nM | – | – |
| CCCS(=O)(=O)Nc1ccc(F)c(NC(=O)N(C)c2cc(N)ncn2)c1F | – | 240 nM | – | – |
| CCCS(=O)(=O)Nc1ccc(Cl)c(NC(=O)c2csc3c(N)ncnc23)c1F | 0.9 nM | 19 nM | – | – |
